Structures can show the parent of a compound that is named as a salt. Where two headings read alike, the source gives them in different places.
Tests used:
[1] = tested on: Human HT-29 Cell Xenografts; assay: HT-29 xenograft mice, Example 4 (Compound I / erlotinib HCl, treatment day 12-29): tumor growth inhibition, regression, survival; format: in vivo; conditions: for Complete Regression / Partial Regression: animals of 10 per group; for 50% Treatment Days: median survival
Protocol: (§1) Differences between groups were considered to be significant when the probability value (p) was ≦0.05.
(§2) For survival assessment, the percent of increased life space (ILS) was calculated as: 100×[(median survival day of treated group−median survival day of control group)/median survival day of control group]. Median survival was determined utilizing Kaplan Meier survival analysis. […] Differences between groups were considered significant when the probability value (p) was ≦0.05.
(§3) Tumor measurements were taken once or twice per week. All animals were individually followed throughout the experiment.

[2] = tested on: Human HT-29 Cell Xenografts; conditions: for tumor regression (partial or complete): Ex.6: Compound I 25 mg/kg bid, cetuximab 40 mg/kg 2x/wk, irinotecan HCl 40 mg/kg q4d x5 monotherapies, cetuximab + irinotecan combination
[3] = tested on: Human HT-29 Cell Xenografts; assay: HT-29 xenograft mice, Example 5 (Compound I / cetuximab, treatment day 12-34): tumor growth inhibition, regression, survival; format: in vivo; conditions: for 50% Treatment Days: median survival
Protocol: as §1, §2, §3

[4] = Toxicity in Example 5 study: body weight change, mortality, gross observation
[5] = Solubility in water, amorphous versus crystalline form; format: physicochemical; conditions: amorphous form as compared with the crystalline form
[6] = Toxicity in Example 6 study: body weight change, mortality, gross observation
[7] = Toxicity in Example 4 study: body weight change, mortality, gross observation
Protocol: Erlotinib hydrochloride at 100 mg/kg qd was included as a monotherapy arm for comparison.

[8] = erlotinib hydrochloride 100 mg/kg qd in combination; Higgins et al., Anticancer Drugs 15:503-12 (2004); cited from earlier work
[9] = Ex.4: Compound I 75 mg/kg bid po
[10] = Ex.6: Compound I 25 mg/kg bid po, animals of 10 per group
[11] = Ex.5: Compound I 25 mg/kg bid po
[12] = Ex.5: Compound I 75 mg/kg bid po
[13] = Ex.5: Compound I 75 mg/kg bid po, animals of 10 per group
[14] = Ex.6: Compound I 25 mg/kg bid po
[15] = Ex.4: erlotinib HCl 67 mg/kg qd po
[16] = Ex.4: erlotinib HCl 100 mg/kg qd po
[17] = Ex.6: irinotecan HCl 40 mg/kg q4d x5 ip

Which “% ILS” value [1, 9] does the source give for CCCS(=O)(=O)Nc1ccc(F)c(C(=O)c2c[nH]c3ncc(-c4ccc(Cl)cc4)cc23)c1F [Compound I, propane-1-sulfonic acid {3-[5-(4-chloro-phenyl)-1H-pyrrolo[2,3-b]pyridine-3-carbonyl]-2,4-difluoro-phenyl}-amide] here?
The value was 100%.

And the “% Inhibition end of study Day: 29” value [1, 9]?
Its value is 91%.

And the “% T/C end of study Day: 29” value [1, 9]?
Its value is 9%.

And the “% Tumor Growth Inhibition” value [1, 9]?
The value was 91%.

What about the “Mean Tumor Volume (mm^3) End Study” value [1, 9] of the same compound?
The value was 270.24 mm^3.

And the “Complete Regression” value [1, 9]?
Its value is 0.

And the “Partial Regression” value [1, 9]?
Its value is 0.

What about the “50% Treatment Days” value [1, 9] of the same compound?
The value was 52 days.

And the “Complete Regression” value [2, 10]?
Its value is 0.

And the “Partial Regression” value [2, 10]?
The value was 0.

What about the “tumor regression (partial or complete)” value [2] of the same compound?
The value was “no regressions”.

What about the “% ILS” value [3, 11] of the same compound?
Its value is 44%.

What about the “% Inhibition end of study Day: 34” value [3, 11] of the same compound?
The value was 74%.

And the “% T/C end of study Day: 34” value [3, 11]?
The value was 26%.

What about the “% Tumor Growth Inhibition” value [3, 11] of the same compound?
The value was 74%.

And the “Mean Tumor Volume (mm^3) End Study” value [3, 11]?
The value was 615.99 mm^3.

And the “50% Treatment Days” value [3, 11]?
The value was 46 days.

What about the “% ILS” value [3, 12] of the same compound?
The value was 75%.

What about the “% Inhibition end of study Day: 34” value [3, 12] of the same compound?
The value was 93%.

And the “% T/C end of study Day: 34” value [3, 12]?
The value was 7%.

And the “% Tumor Growth Inhibition” value [3, 12]?
The value was 93%.

And the “Mean Tumor Volume (mm^3) End Study” value [3, 12]?
Its value is 275.66 mm^3.

What about the “Complete Regression” value [3, 13] of the same compound?
Its value is 0.

And the “Partial Regression” value [3, 13]?
Its value is 0.

What about the “50% Treatment Days” value [3, 12] of the same compound?
Its value is 56 days.

What about the “# animals ≧ 20% BWL” value [4, 11] of the same compound?
Its value is 0.

What about the “% Change in Body Weight at end of Study Day 34” value [4, 11] of the same compound?
Its value is 0.1%.

What about the “Max % Weight Gain” value [4, 11] of the same compound?
The value was 0.3%.

And the “Max % Weight Loss” value [4, 11]?
Its value is −2.2%.

What about the Mortality [4, 11] of the same compound?
Its Mortality is 0.

What about the “# animals ≧ 20% BWL” value [4, 12] of the same compound?
Its value is 0.

And the “% Change in Body Weight at end of Study Day 34” value [4, 12]?
Its value is −0.1%.

And the “Max % Weight Gain” value [4, 12]?
Its value is 0.7%.

And the “Max % Weight Loss” value [4, 12]?
The value was −1.4%.

And the Mortality [4, 12]?
Its Mortality is 0.

And the solubility in water [5]?
The solubility in water was “greater solubility in water”.

What about the “# animals ≧ 20% BWL” value [6, 14] of the same compound?
Its value is 0.

And the “% Change in Body Weight at end of Study Day 32” value [6, 14]?
The value was 2.9%.

And the “Max % Weight Gain” value [6, 14]?
The value was 3.8%.

What about the “Max % Weight Loss” value [6, 14] of the same compound?
Its value is −0.6%.

And the Mortality [6, 14]?
The Mortality was 0.

For C#Cc1cccc(Nc2ncnc3cc(OCCOC)c(OCCOC)cc23)c1 [Erlotinib HCl, erlotinib hydrochloride], which “% ILS” value [1, 15] is on record?
The value was 35%.

And the “% Inhibition end of study Day: 29” value [1, 15]?
Its value is 38%.

What about the “% T/C end of study Day: 29” value [1, 15] of the same compound?
Its value is 62%.

And the “% Tumor Growth Inhibition” value [1, 15]?
The value was 38%.

What about the “Mean Tumor Volume (mm^3) End Study” value [1, 15] of the same compound?
The value was 1025.10 mm^3.

And the “Complete Regression” value [1, 15]?
Its value is 0.

And the “Partial Regression” value [1, 15]?
Its value is 0.

And the “50% Treatment Days” value [1, 15]?
The value was 35 days.

What about the “% ILS” value [1, 16] of the same compound?
The value was 38%.

And the “% Inhibition end of study Day: 29” value [1, 16]?
Its value is 51%.

What about the “% T/C end of study Day: 29” value [1, 16] of the same compound?
Its value is 49%.

And the “% Tumor Growth Inhibition” value [1, 16]?
Its value is 51%.

And the “Mean Tumor Volume (mm^3) End Study” value [1, 16]?
The value was 838.75 mm^3.

What about the “Complete Regression” value [1, 16] of the same compound?
Its value is 0.

And the “Partial Regression” value [1, 16]?
The value was 0.

And the “50% Treatment Days” value [1, 16]?
Its value is 36 days.

And the “# animals ≧ 20% BWL” value [7, 15]?
The value was 0.

And the “% Change in Body Weight at end of Study Day 29” value [7, 15]?
Its value is 3.1%.

What about the “Max % Weight Gain” value [7, 15] of the same compound?
Its value is 3.1%.

And the “Max % Weight Loss” value [7, 15]?
Its value is 0.1%.

And the Mortality [7, 15]?
The Mortality was 0.

What about the “# animals ≧ 20% BWL” value [7, 16] of the same compound?
Its value is 0.

And the “% Change in Body Weight at end of Study Day 29” value [7, 16]?
Its value is 2.9%.

What about the “Max % Weight Gain” value [7, 16] of the same compound?
Its value is 3.0%.

And the “Max % Weight Loss” value [7, 16]?
The value was −1.6%.

And the Mortality [7, 16]?
The Mortality was 0.

What about the “EGFR inhibitor related skin rash” value ([7]; Ex.4: mice treated with erlotinib hydrochloride, self limiting under continuous treatment) of the same compound?
The value was “skin rash was common”.

And the “tolerability in combination (historical)” value [8]?
The value was “not well tolerated”.

Which “tumor regression (partial or complete)” value [2] does the source give for CCc1c2c(nc3ccc(OC(=O)N4CCC(N5CCCCC5)CC4)cc13)-c1cc3c(c(=O)n1C2)COC(=O)[C@]3(O)CC [Irinotecan HCl, irinotecan hydrochloride, reference compound] here?
The value was “no regressions”.

What about the “% ILS” value [2, 17] of the same compound?
Its value is 17%.

And the “# animals ≧ 20% BWL” value [6, 17]?
The value was 0.

And the “% Change in Body Weight at end of Study Day 32” value [6, 17]?
Its value is 2.7%.

And the “Max % Weight Gain” value [6, 17]?
Its value is 2.8%.

And the “Max % Weight Loss” value [6, 17]?
Its value is 0.1%.

And the Mortality [6, 17]?
The Mortality was 0.
